In patent publication US10358434B2, “2-(3-pyridinyl)-1H-benzimidazole derivative compound and medicament containing same” (NIHON MEDI-PHYSICS CO., LTD., priority 2014, dated 2019):

Legend:
[1] = tested on: human adrenal gland section expressing aldosterone-producing adenoma; assay: In vitro autoradiography using human adrenal adenoma; format: binding; conditions: section of FIG. 17(b)
Method in brief: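 Autoradiography readout: PSL in equal-sized ROIs over adenoma (B2) and normal adrenal cortex (B1), expressed as B2/B1 and decay-corrected using half-life, applied activity and plate contact time. Tissue was surgically excised human adrenal, frozen and cut at 7 μm, incubated 10 min with 5-33 kBq/mL tracer in BSA-containing PBS, then imaged after 16-20 h exposure.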

[2] = Plasma stability evaluation (TLC analysis); format: in vitro ADME; conditions: 37° C., 60 minutes, TLC analysis
Method in brief: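 TLC analysis, using each compound's synthesis conditions, judged stability after methanol was added and samples were centrifuged to remove protein. Beforehand, each tracer had spent 60 minutes at 37° C in pooled heparinized normal human plasma.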

[3] = In vivo kinetics experiment (radioactivity distribution); parameters: species or system Wistar male rat; conditions: rat i.v., mean ± SD
Method in brief: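 Tissue radioactivity (% ID/g) and adrenal-to-blood, liver, kidney, small intestine, muscle and fat ratios determined at 10, 30 and 60 min post-dose. Tracers (approximately 1 to 3.7 MBq, saline with 1 w/v % ascorbic acid) injected i.v. into caudal vein of anesthetized 9-week male Wistar rats; organs excised, weighed, counted.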

Structure (SMILES): Cn1c(-c2cncc(Cn3ccnc3)c2)nc2ccc([123I])cc21 [[^123I] 607, 2-[5-{(1H-imidazol-1-yl)methyl}pyridin-3-yl]-6-[^123I]iodo-1-methyl-1H-benzo[d]imidazole]
- B2/B1 accumulation ratio [1]: 0.90
- B2 (PSL value, aldosterone-producing adenoma) ([1]; site 71b): 5332
- B1 (PSL value, normal adrenal cortex) ([1]; site 72b): 5945
- Radiochemical purity after incubation in human plasma [2]: 84%
- Adrenal gland/blood ratio of radioactivity accumulation ([3]; 10 min after administration): 64.15 ± 4.03
- Adrenal gland/fat ratio of radioactivity accumulation ([3]; 10 min after administration): 92.36 ± 15.53
- Adrenal gland/kidney ratio of radioactivity accumulation ([3]; 10 min after administration): 5.73 ± 1.00
- Adrenal gland/liver ratio of radioactivity accumulation ([3]; 10 min after administration): 3.85 ± 0.67
- Adrenal gland/muscle ratio of radioactivity accumulation ([3]; 10 min after administration): 64.58 ± 8.21
- Adrenal gland/small intestine ratio of radioactivity accumulation ([3]; 10 min after administration): 3.95 ± 0.40
- Radioactivity distribution Adrenal gland ([3]; 10 min after administration): 11.13 ± 0.88 % ID/g
- Radioactivity distribution Bladder (including urine) ([3]; 10 min after administration): 1.20 ± 0.71 % ID/g
- Radioactivity distribution Blood ([3]; 10 min after administration): 0.17 ± 0.02 % ID/g
- Radioactivity distribution Fat ([3]; 10 min after administration): 0.12 ± 0.02 % ID/g
- Radioactivity distribution Femur ([3]; 10 min after administration): 0.86 ± 0.02 % ID/g
- Radioactivity distribution Heart ([3]; 10 min after administration): 0.66 ± 0.03 % ID/g
- Radioactivity distribution Kidney ([3]; 10 min after administration): 1.96 ± 0.19 % ID/g
- Radioactivity distribution Large intestine ([3]; 10 min after administration): 0.12 ± 0.02 % ID/g
- Radioactivity distribution Liver ([3]; 10 min after administration): 2.93 ± 0.40 % ID/g
- Radioactivity distribution Lung ([3]; 10 min after administration): 0.90 ± 0.07 % ID/g
- Radioactivity distribution Muscle (lower limbs) ([3]; 10 min after administration): 0.17 ± 0.02 % ID/g
- Radioactivity distribution Remaining whole body ([3]; 10 min after administration): 0.27 ± 0.03 % ID/g
- Radioactivity distribution Small intestine ([3]; 10 min after administration): 2.82 ± 0.12 % ID/g
- Radioactivity distribution Spleen ([3]; 10 min after administration): 4.93 ± 0.56 % ID/g
- Radioactivity distribution Stomach ([3]; 10 min after administration): 0.88 ± 0.20 % ID/g
- Radioactivity distribution Testis ([3]; 10 min after administration): 0.06 ± 0.01 % ID/g
- Radioactivity distribution Whole brain ([3]; 10 min after administration): 0.03 ± 0.00 % ID/g
- Adrenal gland/blood ratio of radioactivity accumulation ([3]; 30 min after administration): 163.89 ± 22.78
- Adrenal gland/fat ratio of radioactivity accumulation ([3]; 30 min after administration): 109.60 ± 14.02
- Adrenal gland/kidney ratio of radioactivity accumulation ([3]; 30 min after administration): 12.63 ± 4.53
- Adrenal gland/liver ratio of radioactivity accumulation ([3]; 30 min after administration): 15.55 ± 2.37
- Adrenal gland/muscle ratio of radioactivity accumulation ([3]; 30 min after administration): 114.11 ± 13.20
- Adrenal gland/small intestine ratio of radioactivity accumulation ([3]; 30 min after administration): 2.89 ± 0.23
- Radioactivity distribution Adrenal gland ([3]; 30 min after administration): 14.61 ± 1.60 % ID/g
- Radioactivity distribution Bladder (including urine) ([3]; 30 min after administration): 2.79 ± 0.51 % ID/g
- Radioactivity distribution Blood ([3]; 30 min after administration): 0.09 ± 0.00 % ID/g
- Radioactivity distribution Fat ([3]; 30 min after administration): 0.13 ± 0.01 % ID/g
- Radioactivity distribution Femur ([3]; 30 min after administration): 0.98 ± 0.16 % ID/g
- Radioactivity distribution Heart ([3]; 30 min after administration): 0.54 ± 0.05 % ID/g
- Radioactivity distribution Kidney ([3]; 30 min after administration): 1.24 ± 0.36 % ID/g
- Radioactivity distribution Large intestine ([3]; 30 min after administration): 0.12 ± 0.01 % ID/g
- Radioactivity distribution Liver ([3]; 30 min after administration): 0.94 ± 0.06 % ID/g
- Radioactivity distribution Lung ([3]; 30 min after administration): 0.72 ± 0.05 % ID/g
- Radioactivity distribution Muscle (lower limbs) ([3]; 30 min after administration): 0.13 ± 0.00 % ID/g
- Radioactivity distribution Remaining whole body ([3]; 30 min after administration): 0.27 ± 0.03 % ID/g
- Radioactivity distribution Small intestine ([3]; 30 min after administration): 5.06 ± 0.42 % ID/g
- Radioactivity distribution Spleen ([3]; 30 min after administration): 6.69 ± 1.24 % ID/g
- Radioactivity distribution Stomach ([3]; 30 min after administration): 1.17 ± 0.29 % ID/g
- Radioactivity distribution Testis ([3]; 30 min after administration): 0.09 ± 0.02 % ID/g
- Radioactivity distribution Whole brain ([3]; 30 min after administration): 0.02 ± 0.00 % ID/g
- Adrenal gland/blood ratio of radioactivity accumulation ([3]; 60 min after administration): 241.20 ± 39.48
- Adrenal gland/fat ratio of radioactivity accumulation ([3]; 60 min after administration): 194.91 ± 44.02
- Adrenal gland/kidney ratio of radioactivity accumulation ([3]; 60 min after administration): 18.18 ± 3.94
- Adrenal gland/liver ratio of radioactivity accumulation ([3]; 60 min after administration): 27.59 ± 4.15
- Adrenal gland/muscle ratio of radioactivity accumulation ([3]; 60 min after administration): 177.15 ± 43.41
- Adrenal gland/small intestine ratio of radioactivity accumulation ([3]; 60 min after administration): 3.39 ± 0.53
- Radioactivity distribution Adrenal gland ([3]; 60 min after administration): 18.47 ± 2.05 % ID/g
- Radioactivity distribution Bladder (including urine) ([3]; 60 min after administration): 2.99 ± 1.26 % ID/g
- Radioactivity distribution Blood ([3]; 60 min after administration): 0.08 ± 0.01 % ID/g
- Radioactivity distribution Fat ([3]; 60 min after administration): 0.10 ± 0.02 % ID/g
- Radioactivity distribution Femur ([3]; 60 min after administration): 1.17 ± 0.10 % ID/g
- Radioactivity distribution Heart ([3]; 60 min after administration): 0.43 ± 0.08 % ID/g
- Radioactivity distribution Kidney ([3]; 60 min after administration): 1.04 ± 0.19 % ID/g
- Radioactivity distribution Large intestine ([3]; 60 min after administration): 0.16 ± 0.03 % ID/g
- Radioactivity distribution Liver ([3]; 60 min after administration): 0.67 ± 0.04 % ID/g
- Radioactivity distribution Lung ([3]; 60 min after administration): 0.65 ± 0.15 % ID/g
- Radioactivity distribution Muscle (lower limbs) ([3]; 60 min after administration): 0.11 ± 0.02 % ID/g
- Radioactivity distribution Remaining whole body ([3]; 60 min after administration): 0.26 ± 0.01 % ID/g
- Radioactivity distribution Small intestine ([3]; 60 min after administration): 5.48 ± 0.49 % ID/g
- Radioactivity distribution Spleen ([3]; 60 min after administration): 6.95 ± 0.95 % ID/g
- Radioactivity distribution Stomach ([3]; 60 min after administration): 1.52 ± 0.61 % ID/g
- Radioactivity distribution Testis ([3]; 60 min after administration): 0.11 ± 0.02 % ID/g
- Radioactivity distribution Whole brain ([3]; 60 min after administration): 0.02 ± 0.00 % ID/g
